Measured values published in US20170044104A1, “NEW PESTICIDAL COMPOUNDS AND USES” (BAYER CROPSCIENCE AG, priority 2013, published 2017).

system: Cooperia curticei; assay: Cooperia curticei (COOPCU) larval mortality assay; conditions: 120 h, application rate 4 ppm, after 5 days, read-out: activity (percentage of larval mortality)
Experimental: (§1) Solvent: dimethyl sulfoxide
(§2) To produce a suitable preparation of active compound, 10 mg of active compound are dissolved in 0.5 ml solvent, and the concentrate is diluted with “Ringer's solution” to the desired concentration.
Approximately 40 nematode larvae (Cooperia curticei) are transferred into a test tube containing the compound solution.
After 5 days percentage of larval mortality is recorded. 100% efficacy means all larvae are killed; 0% efficacy means no larvae are killed.

In the case of `CN(C)c1ncc(-c2ccc(C(F)(F)CNC(=O)c3ccccc3C(F)(F)F)c(C(F)(F)F)c2)cn1` [Example 1-149], the mortality at 4 ppm is reported as 90%.

same assay, conditions: 120 h, application rate 20 ppm, after 5 days, read-out: activity (percentage of larval mortality)

Going from `CN(C)c1ccc(-c2ccc(C(F)(F)CNC(=O)c3ccccc3C(F)(F)F)c(C(F)(F)F)c2)cn1` [Example 1-125] to `COc1ccc(-c2ccc(C(F)(F)CNC(=O)c3ccccc3C(F)(F)F)c(C(F)(F)F)c2)cn1` [Example 1-127], the mortality at 20 ppm rises from 80% to 100%.

Going from `O=C(NCCc1ccc(-c2cc(Cl)nc(Cl)c2)cc1Cl)c1ccccc1C(F)(F)F` [Example 1-46] to `O=C(NCCc1ccc(-c2ccnc(Cl)c2)cc1Cl)c1ccccc1C(F)(F)F` [Example 1-65], the mortality at 20 ppm falls from 100% to 90%.

`Cc1occc1-c1ccc(CCNC(=O)c2ccccc2C(F)(F)F)c(Cl)c1` [Example 1-40] and `Cc1occc1-c1ccc(CCNC(=O)c2ccccc2C(F)(F)F)cc1` [Example 1-59] are the same in mortality at 20 ppm: 100% for the first, 100% for the second.

First: O=C(NCCc1ccc(-c2cccnc2)cc1)c1ccccc1C(F)(F)F [Example 1-57]
Second: O=C(NCCc1ccc(-c2ccncc2)cc1)c1ccccc1C(F)(F)F [Example 1-13]
The mortality at 20 ppm of the first is higher: 100% for the first, 80% for the second.

First: O=C(NCC(F)c1ccc(-c2cncc(Cl)c2)cc1Cl)c1cccnc1C(F)(F)F (centres unmarked) [Example 1-83]
Second: O=C(NCCc1ccc(-c2ccnc(Cl)c2)cc1)c1cccnc1C(F)(F)F [Example 1-26]
The mortality at 20 ppm of the first is higher: 100% for the first, 90% for the second.

First: Cc1occc1-c1ccc(CCNC(=O)c2cccnc2C(F)(F)F)cc1 [Example 1-23]
Second: Cc1ncccc1-c1ccc(CCNC(=O)c2cccnc2C(F)(F)F)cc1 [Example 1-21]
The mortality at 20 ppm of the first is lower: 80% for the first, 100% for the second.

Going from `O=C(NCCc1ccc(-c2cnccc2Cl)cc1Cl)c1ccccc1C(F)(F)F` [Example 1-31] to `O=C(NCCc1ccc(-c2ccncc2)cc1Cl)c1ccccc1C(F)(F)F` [Example 1-36], the mortality at 20 ppm falls from 100% to 80%.

`O=C(NCCc1ccc(-c2ccnc(F)c2)cc1Cl)c1ccccc1C(F)(F)F` [Example 1-34] and `O=C(NCCc1ccc(-c2ccnc(F)c2)cc1)c1ccccc1C(F)(F)F` [Example 1-51] are the same in mortality at 20 ppm: 100% for the first, 100% for the second.

`O=C(NCCc1ccc(-c2ccoc2)cc1)c1ccccc1C(F)(F)F` [Example 1-52] and `O=C(NCCc1ccc(-c2cccc(Cl)n2)cc1)c1ccccc1C(F)(F)F` [Example 1-55] are the same in mortality at 20 ppm: 100% for the first, 100% for the second.

First: Cc1nc(C)c(-c2ccc(CCNC(=O)c3ccccc3C(F)(F)F)c(Cl)c2)s1 [Example 1-50]
Second: CC(C)Oc1ccc(-c2ccc(C(F)(F)CNC(=O)c3ccccc3C(F)(F)F)c(Cl)c2)cn1 [Example 1-91]
The mortality at 20 ppm of the first is lower: 90% for the first, 100% for the second.

First: O=C(NCCc1ccc(-c2ccc(OCC(F)(F)F)nc2)cc1)c1cccnc1C(F)(F)F [Example 1-18]
Second: O=C(NCC(F)(F)c1ccc(-c2ccc(C(F)(F)F)nc2)cc1F)c1ccccc1C(F)(F)F [Example 1-105]
The mortality at 20 ppm of the first is higher: 100% for the first, 90% for the second.

`CN(C)c1ncc(-c2ccc(C(F)(F)CNC(=O)c3ccccc3C(F)(F)F)c(F)c2)cn1` [Example 1-146] showed a mortality at 20 ppm of 100%.

system: Haemonchus contortus; assay: Haemonchus contortus (HAEMCO) larval mortality assay; conditions: 120 h, application rate 20 ppm, after 5 days, read-out: activity (percentage of larval mortality)
Experimental: as §1, §2
Approximately 40 larvae of the red stomach worm (Haemonchus contortus) are transferred into a test tube containing compound solution.
After 5 days percentage of larval mortality are recorded. 100% efficacy means all larvae are killed, 0% efficacy means no larvae are killed.

First: COc1ccc(-c2ccc(C(F)(F)CNC(=O)c3ccccc3C(F)(F)F)c(C(F)(F)F)c2)cn1 [Example 1-127]
Second: Cc1cc(-c2ccc(CCNC(=O)c3ccccc3C(F)(F)F)cc2)ccn1 [Example 1-11]
The mortality at 20 ppm of the first is higher: 100% for the first, 80% for the second.

Compared with `Cc1occc1-c1ccc(CCNC(=O)c2ccccc2C(F)(F)F)c(Cl)c1` [Example 1-40], `Cc1nc(Cl)ccc1-c1cccc(CCNC(=O)c2ccccc2C(F)(F)F)c1` [Example 1-5] is lower in mortality at 20 ppm: 100% for the first, 90% for the second.

Compared with `O=C(NCCc1ccc(-c2cccnc2)cc1)c1ccccc1C(F)(F)F` [Example 1-57], `O=C(NCCc1cccc(-c2cncc(F)c2)c1)c1ccccc1C(F)(F)F` [Example 1-3] is higher in mortality at 20 ppm: 80% for the first, 90% for the second.

`O=C(NCC(F)c1ccc(-c2cncc(Cl)c2)cc1Cl)c1cccnc1C(F)(F)F` (centres unmarked) [Example 1-83] and `CC(F)(CNC(=O)c1c(F)cccc1F)c1ccc(-c2cncc(F)c2)cc1Cl` (centres unmarked) [Example 1-103] are the same in mortality at 20 ppm: 100% for the first, 100% for the second.
